Literature values, collected in patent US20090196919A1, “OXCARBAZEPINE DOSAGE FORMS” (priority 2004, published 2009).

- solubility in water: poor
SMILES: NC(=O)N1c2ccccc2CC(=O)c2ccccc21 [Oxcarbazepine, 10,11-dihydro-10-oxo-5H-dibenz[b,f]azepine-5-carboxamide]
